The text below walks through data of article PMC12040169 (PLOS Biology, 2025).

The nature of the series: in vitro. Conditions: human, hela cells, % viability.

For orientation: viability means a read-out of living cells in per cent, often relative to untreated cells. For `CN1CCC(N(C)C(=O)NCCN2CCOCC2)C1` (centres unmarked) [CBK156002], the viability at 28.5 h, 10 µM is 96.3%.
In the case of `OCCN(CCO)c1cncc(-c2cccs2)n1` [CBK065766] it was 95.4%; in that of `COC(=O)CCn1c(-c2cccnc2C)cc2cccnc21` [CBK282593], 105%.
Take `CCN(CC)CC(=O)Nc1c2c(nc3ccccc13)N(C)CC2` [CBK023917C]: the viability at 28.5 h, 10 µM worked out at 110%.
As to `Cc1nc(-c2ccc(CNC(=O)c3cc(=O)[nH]c4ccccc34)o2)cs1` [CBK238261], the viability at 28.5 h, 10 µM was 79.2%.
Then `O=C(c1ccco1)N1CCC(n2nc(C3CC3)ccc2=O)CC1` [CBK282350], with 109%; and `COC(=O)c1ccc(NC(=O)CCN2C(=O)c3cccc([N+](=O)[O-])c3C2=O)cc1` [CBK263137], with 98.1%.
For the compound `CC(C)N1CCC2(C/C=C/CNC(=O)c3ccccc3OCCNC2=O)CC1` [CBK292094], the viability at 28.5 h, 10 µM is 98.7%.
Then `COc1ccc(C2(C(=O)N3CCN(C)CC3)CC2)cc1` [CBK149837], with 86.3%.
With `Clc1cncc(-c2cc3ccccc3[nH]2)n1` [CBK154865], the viability at 28.5 h, 10 µM stood at 101%.
Consider `Nc1nc(=O)n([C@H]2C[C@@H](O)[C@@H](CO)O2)cc1O` [CBK201221], for which the viability at 28.5 h, 10 µM was determined as 98.2%.
For `CNC(=O)C1(Cc2ccccc2-c2ccccc2)CCN(C(=O)Cc2ccc(C)cc2)CC1` [CBK286274], the viability at 28.5 h, 10 µM was 88.4%.
In the case of `Cc1nc(N2CCN(C)CC2)ncc1C(=O)NCCSc1cnn[nH]1` [CBK306623] it was 88.2%.
Then `CCC1(C)CCCN(Cc2nnnn2-c2ccc(S(C)(=O)=O)cc2)C1` (centres unmarked) [CBK306180], with 113%; and `CN(C)CCCC(=O)N1CCN(C(=O)c2ccco2)CC1` [CBK144445], with 111%.
Take `Cc1nc2cc(OCc3nc(C(=O)N(CCO)CCO)co3)ccc2s1` [CBK307684]: the viability at 28.5 h, 10 µM is 89.9%.
In the case of `Cc1cc(NC(=O)c2sc3nc4c(cc3c2N)N2CCC4CC2)no1` [CBK270217] it was 100%.
For the compound `CN(C(=O)c1cc(O)nc2ccccc12)c1nccs1` [CBK297778], the viability at 28.5 h, 10 µM is 105%.
For `COc1ccc(-c2ccc3c(c2)COC2(CCCNC2)O3)c(OC)c1` (centres unmarked) [CBK105316], the viability at 28.5 h, 10 µM came out at 103%.
Regarding `CC1(C)CC(=O)C=C(C(=O)NCc2ccc3c(c2)OCO3)O1` [CBK153290], the viability at 28.5 h, 10 µM was 98.3%.
In the case of `COc1cccc(CNc2ccc(S(N)(=O)=O)cc2)c1OCc1ccccc1F` [CBK267906], the viability at 28.5 h, 10 µM turned out to be 108%.
Take `CN1CCCN(C(=O)c2ccc(-c3nc(-c4ccc(C#N)cc4)cnc3N)cc2)CC1` [CBK107140]: the viability at 28.5 h, 10 µM came out at 93.9%.
As to `O=C(C1CCCCC1)N1CC(n2nc(-c3cccs3)ccc2=O)C1` [CBK283346], the viability at 28.5 h, 10 µM came out at 99.2%.
With `Cc1ccc(O)c(NC(=O)c2ccccc2-c2ccccc2C(=O)O)c1` [CBK266763], the viability at 28.5 h, 10 µM came out at 82.9%.
For the compound `CC(C)N1CCC(CNC(=O)Cn2ccc3ccc(F)cc32)CC1` [CBK282571], the viability at 28.5 h, 10 µM came out at 89.9%.
As to `CN(C)c1nc(NCc2ccccc2)nc(SCC(=O)Nc2ccccc2Cl)n1` [CBK267190], the viability at 28.5 h, 10 µM worked out at 93.3%.
Then `CC(=O)Nc1cc2ccccc2nc1C1CCN(C(=O)C(C)C)CC1` [CBK285259], with 83.7%; and `FC(F)(F)c1ccc(-c2c[nH]c([C@@H]3COCCN3Cc3csnn3)n2)cc1` [CBK289318], with 92.2%; and `CC1Cc2cc(C(O)CN3CCC(O)(c4ccccc4F)CC3)ccc2N1S(C)(=O)=O` (centres unmarked) [CBK283091], with 87.5%.
As for `O=C(NCc1cccs1)C1(Cc2ccccc2-c2coc3ccccc23)CCOCC1` [CBK286310], the viability at 28.5 h, 10 µM was 108%.
Turning to `O=C1NCC2(CCN(C(=O)C3CCCC3)CC2)Oc2ccccc21` [CBK282920], the viability at 28.5 h, 10 µM came out at 94.1%.
For the compound `COc1ccc(C(C)C)cc1-c1nccnc1NCCc1c[nH]c2ccccc12` [CBK036650], the viability at 28.5 h, 10 µM worked out at 109%.
`O=C(CCCn1ccnc1)N1CCCC(c2cc3cccnc3[nH]2)C1` (centres unmarked) [CBK284959]: the viability at 28.5 h, 10 µM came out at 107%.
For the compound `Cc1cc(C)cc(OCc2nnc(SCC(=O)Nc3cc(C(F)(F)F)ccc3Cl)o2)c1` [CBK267890], the viability at 28.5 h, 10 µM worked out at 94.6%.
As to `O=C(CCNS(=O)(=O)c1ccccc1Cl)N1CCN(C(=O)C2CC2)CC1` [CBK306025], the viability at 28.5 h, 10 µM turned out to be 113%.
Regarding `O=C(/C=C/c1cn(-c2ccccc2)nc1-c1cc2ccccc2oc1=O)NCc1ccccc1` [CBK266530], the viability at 28.5 h, 10 µM came to 100%.
For the compound `O=C(Nc1cncc(OC2CCNCC2)n1)c1ccoc1` [CBK036366T], the viability at 28.5 h, 10 µM is 92%.
For the compound `C(=C\c1nccnc1OCc1ccccn1)/c1ccccc1` [CBK106874], the viability at 28.5 h, 10 µM is 105%.
With `O=C(O)CCC(=O)NCCc1ccc(Cl)cc1` [CBK287165], the viability at 28.5 h, 10 µM turned out to be 92.7%.
In the case of `COCC1(C(=O)N2CC(=O)N(c3ccc(Cl)cc3)CC2C)CCC1` (centres unmarked) [CBK306674] it was 89.2%; in that of `Nc1nc(SCC(=O)NCCCO)nc2sc3c(c12)CCC3` [CBK264952], 88.7%.
For `c1ccc2[nH]c(CN3CCC[C@@H]3CN3CCCC3)nc2c1` [CBK149102], the viability at 28.5 h, 10 µM was found to be 85.9%.
Consider `CCCOc1ccc(C(=O)NCc2ccccn2)cc1` [CBK269789], for which the viability at 28.5 h, 10 µM came out at 93.9%.
`Cc1cnc(Nc2cccc(C3CCCN3C(=O)CCOc3ccccc3C)n2)s1` (centres unmarked) [CBK285972]: the viability at 28.5 h, 10 µM is 112%.
With `CCc1c(C)nc2ccccc2c1S(=O)(=O)CCC(=O)OC` [CBK155468T], the viability at 28.5 h, 10 µM worked out at 96.8%.
In the case of `CCC(CC)Oc1ccc(C2(C)NC(=O)NC2=O)cc1` (centres unmarked) [CBK288409], the viability at 28.5 h, 10 µM is 96.4%.
As to `CCOC(=O)c1cnn(C2CCCN(Cc3ccsc3)C2)c1` (centres unmarked) [CBK305112], the viability at 28.5 h, 10 µM came to 94.9%.
As for `O=S1(=O)CCC(Sc2nncc3ccccc23)C1` (centres unmarked) [CBK021586], the viability at 28.5 h, 10 µM was found to be 92.2%.
With `O=C(O)c1ccc(CNCc2ccc(-c3ccc(F)cc3)o2)cc1` [CBK269622C], the viability at 28.5 h, 10 µM was 90.9%.
In the case of `O=C1COc2ccc(C(=O)CSc3nnc(C4CC4)n3C3CC3)cc2N1` [CBK297110], the viability at 28.5 h, 10 µM came out at 73.4%.
In the case of `Cn1c(=O)n(C)c2cc(CNc3nn[nH]n3)ccc21` [CBK270243], the viability at 28.5 h, 10 µM turned out to be 92.4%.
For the compound `O=C(N/N=C/C=C/c1ccc([N+](=O)[O-])cc1)C(O)c1ccccc1` (centres unmarked) [CBK261373], the viability at 28.5 h, 10 µM turned out to be 81.5%.
For `COc1cc(/C=C2\NC(=O)N(Cc3ccc([N+](=O)[O-])cc3)C2=O)ccc1OC(C)C(=O)O` (centres unmarked) [CBK265348], the viability at 28.5 h, 10 µM came to 107%.
`Cc1noc(C)c1NC(=O)c1ccc2nccnc2c1` [CBK200221]: the viability at 28.5 h, 10 µM was 84.1%.
Turning to `CSc1nc(NC(=O)c2cc(-c3ccccc3)oc2C)cc(N2CCNCC2)n1` [CBK050364T], the viability at 28.5 h, 10 µM was determined as 89.9%.
Then `O=C(NCC1(CCO)CCOC1)c1c[nH]nc1-c1cc2ccccc2o1` (centres unmarked) [CBK305492], with 103%; and `CCN1CCC(NCc2ccc(OCC(N)=O)cc2)CC1` [CBK306106], with 85.9%.
Regarding `COc1ccc(N(Cc2cccnc2)C(=O)c2ccc(-c3ccccc3)[nH]c2=O)cc1` [CBK283089], the viability at 28.5 h, 10 µM turned out to be 105%.
On to `Cc1[nH]c2c(C)cccc2c1CC(=O)N(C)CCN(C)C` [CBK282724], for which the viability at 28.5 h, 10 µM was 82.6%.
In the case of `Cc1cccc(C(=O)NC(CC(C)C)c2nnc3n2CCNCC3)n1` (centres unmarked) [CBK306866] it was 108%; in that of `CCNC(=O)N1C(CC(=O)Nc2cccc(OC)c2)C(=O)NC2CCCCC21` (centres unmarked) [CBK269848], 90.6%.
As for `Cn1cnnc1CNC(=O)N1CCN(Cc2cccs2)CC1` [CBK305045], the viability at 28.5 h, 10 µM was determined as 86.3%.
Take `CC(C)C(=O)Nc1cc2cccnc2nc1-c1ccc2c(c1)OCCCO2` [CBK073658]: the viability at 28.5 h, 10 µM was found to be 96.3%.
Regarding `COc1ccc(N(CC(=O)N2CCN(Cc3ccc4c(c3)OCO4)CC2)S(C)(=O)=O)cc1Cl` [CBK265258], the viability at 28.5 h, 10 µM was found to be 84.3%.
On to `Cc1nc(S(=O)(=O)CCn2cccn2)n(C2CCCC2)c1C` [CBK305138], for which the viability at 28.5 h, 10 µM came to 89%.
Then `CC(C)c1ccc(C(=O)N2CCC(n3cnc4cccnc43)CC2)cc1` [CBK282370], with 82.3%.
For `CC(CNC(=O)c1cncc(O)c1)NC(=O)c1cncc(O)c1` (centres unmarked) [CBK278174], the viability at 28.5 h, 10 µM amounted to 89.2%.
Turning to `O=C(Nc1cccnc1)c1ccnc(Cl)c1` [CBK089829], the viability at 28.5 h, 10 µM is 100%.
In the case of `Cc1csc(CC(C)n2cc(Cl)cn2)n1` (centres unmarked) [CBK304797], the viability at 28.5 h, 10 µM was determined as 99.8%.
In the case of `COc1cc(NS(=O)(=O)c2ccc(N/C=C3/CCc4ccccc4C3=O)cc2)nc(OC)n1` [CBK263376], the viability at 28.5 h, 10 µM turned out to be 82.4%.
`CN1CC[C@H](c2ccccc2)[C@@H]2[C@H]1CCCCN2C(=O)c1ccc(=O)oc1` [CBK285527]: the viability at 28.5 h, 10 µM was found to be 93.2%.
Turning to `Cc1ccc2c(CC(=O)N(C)CCN3CCCCC3)coc2c1` [CBK282747], the viability at 28.5 h, 10 µM amounted to 80.5%.
In the case of `Nc1ncc(-c2cccc(/C=C/C(=O)O)c2)nc1NCc1ccco1` [CBK063691], the viability at 28.5 h, 10 µM came out at 98.7%.
Consider `CCOc1ccc(Nc2nc(-c3ccc(F)cc3)c(CC(=O)O)s2)cc1` [CBK296064], for which the viability at 28.5 h, 10 µM came out at 99.3%.
As for `CN1CC(C(=O)N(C)Cc2nc(-c3ccccc3)no2)NC1=O` (centres unmarked) [CBK306727], the viability at 28.5 h, 10 µM was determined as 108%.
`CCC1(CC)OC(NC[C@@H](C)c2ccccc2)=NC1=O` [CBK123983]: the viability at 28.5 h, 10 µM was determined as 116%.
On to `CC(=O)Nc1ccc(S(=O)(=O)NC2(C(F)(F)F)C(=O)Nc3c2c(=O)[nH]c(=S)n3C2CCCCC2)cc1` (centres unmarked) [CBK268683], for which the viability at 28.5 h, 10 µM turned out to be 97.2%.
For the compound `Nc1nnc(SCC(=O)Nc2ccc3c(c2)OCCO3)s1` [CBK266331], the viability at 28.5 h, 10 µM came out at 95.6%.
As to `COCC(C)NC(=O)c1nn(-c2nc3ccccc3s2)c2ccccc12` (centres unmarked) [CBK048488], the viability at 28.5 h, 10 µM came out at 92.6%.
As to `O=C(CN1CCOCC1)Nc1ccc(S(=O)(=O)Nc2cc(Cl)cc(Cl)c2)cc1` [CBK001239], the viability at 28.5 h, 10 µM came to 89.1%.
